pKi: −log10 of the molar value.
Tests used:
[1] = system: GABAA receptors expressed by bovine retina mRNA; assay: Xenopus oocytes expressing GABAA receptors from bovine retina mRNA; type: cell-based
From the text: (§1) Electrical recording techniques and the Xenopus oocyte expression system were used to determine the sensitivity of a variety of commonly used GABAA and GABAB receptor ligands to GABArho receptors expressed by bovine retina RNA.
When a methylphosphinic acid substituent was used to replace the carboxyl group of GABA in this compound, affects at GABAA receptors were prohibited, but relatively strong interactions at closed channel binding sites on GABArho receptors were detected.

[2] = system: GABAA receptors expressed by rat brain mRNA; assay: Xenopus oocytes expressing GABAA receptors from rat brain mRNA; type: cell-based
[3] = molecular target: GABArho receptors expressed by bovine retina RNA; assay: Electrical recording in Xenopus oocytes expressing GABArho receptors from bovine retina RNA; type: cell-based
From the text: as §1

cloned GABArho receptors = molecular target: T1, cloned GABArho receptors (Homo sapiens, UniProt P24046); assay: Membrane currents in Xenopus oocytes expressing cloned GABArho receptors; type: cell-based
T1 construct: expressed in transfected cells; host or cells: Xenopus oocytes injected with cloned receptor RNA
Protocol: (§2) To test the new compounds synthesized, Xenopus oocytes were injected with the cloned GABA RNA and other oocytes were injected with native poly (A)^+ RNAs extracted from the rat cerebral cortex or spinal cord, bovine brain, rabbit brain, chick brain or optic lobe. […] The various concentrations of compound 7 were applied together with 10^-5M GABA.
To study the time to onset of antagonistic action by TPMPA, a timed trial utilizing pulsed application of GABA (10^-5 M) and TPMPA (8×10^-5 M) was begun. At the first marker pulse of 50 nA, GABA administration of GABA was begun. TPMPA was applied between the 2nd and 3rd markers, and normal Ringers solution (without GABA) was applied at the 4th marker pulse.

[4] = system: GABAA receptors expressed by native mRNAs from the brain; assay: Xenopus oocytes expressing GABAA receptors from native brain mRNAs of different animal species; type: cell-based
Protocol: as §2

[5] = system: chick brain GABAA receptors; assay: Membrane currents in Xenopus oocyte expressing chick brain GABAA receptors; type: cell-based; conditions: various concentrations applied together with 10^-5 M GABA
Protocol: as §2

GABArho receptors = conditions: cited from earlier work
[6] = pulsed application of GABA 10^-5 M and TPMPA 8×10^-5 M

T1 sequence (P24046 22-479): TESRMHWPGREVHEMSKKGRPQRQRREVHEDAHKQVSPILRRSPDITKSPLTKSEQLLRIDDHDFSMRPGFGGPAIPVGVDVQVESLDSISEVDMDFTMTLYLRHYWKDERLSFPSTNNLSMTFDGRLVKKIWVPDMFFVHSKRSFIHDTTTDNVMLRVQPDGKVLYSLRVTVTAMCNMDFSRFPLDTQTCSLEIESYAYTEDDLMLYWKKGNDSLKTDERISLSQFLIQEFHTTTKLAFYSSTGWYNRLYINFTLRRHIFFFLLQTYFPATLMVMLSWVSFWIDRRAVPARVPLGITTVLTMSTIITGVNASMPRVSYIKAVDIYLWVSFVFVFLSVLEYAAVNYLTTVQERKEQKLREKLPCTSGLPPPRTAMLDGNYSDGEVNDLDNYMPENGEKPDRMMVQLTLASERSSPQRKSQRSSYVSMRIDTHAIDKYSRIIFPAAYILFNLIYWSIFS

Question: What does the source list for CP(=O)(O)CCCN [3-aminopropyl(methyl-)phosphinic acid]?
Answer: effects on GABAA receptors [1]: no detectable effects; effects on GABAA receptors [2]: no detectable effects; pKi ([3]; read-out: Ki as competitive antagonist at GABArho receptors): 6.10

Question: With CP(=O)(O)C1=CCNCC1 [Compound 7a, 1,2,5,6-tetrahydropyridine-4-methylphosphinic acid] as the molecule, how does the “effect on membrane current response to GABA” value (cloned GABArho receptors; 8×10^-5 M compound applied together with 10^-5 M GABA) read?
Answer: abolishes almost completely the response to GABA

Question: What about the “antagonism of GABArho receptors” value (cloned GABArho receptors; expressed by cloned GABArho receptor RNA) of the same molecule?
Answer: potent and selective antagonist

Question: What about the “onset of antagonistic action” value (cloned GABArho receptors; [6]) of the same molecule?
Answer: rapid in onset

Question: And the “recovery from antagonistic action” value (cloned GABArho receptors; [6])?
Answer: recovery was also rapid

Question: What about the “blockage of GABAA receptors compared with GABArho receptors” value [4] of the same molecule?
Answer: blockage was less than that of GABArho receptors

Question: And the “attenuation of currents elicited by activation of GABAA receptors” value [5]?
Answer: not greatly attenuated until quite high concentration were used

Question: And the “antagonism of GABArho receptors” value ([3]; expressed by native bovine retina mRNA)?
Answer: potent and selective antagonist

Question: Which “action on GABArho receptors” value [3] does the source give for Oc1noc2c1CCNC2 [THIP, 4,5,6,7-tetrahydroisoxazolo-[5,4-c]-pyridin-3-ol] here?
Answer: either as weak partial agonists or as competitive antagonists

Question: Which “sensitivity of GABArho receptors” value (GABArho receptors) does the source give for NCC(CC(=O)O)c1ccc(Cl)cc1 (stereo not drawn) [baclofen] here?
Answer: insensitive

Question: With CN1CCc2cc3c(cc2[C@H]1[C@@H]1OC(=O)c2c1ccc1c2OCO1)OCO3 [bicuculline] as the molecule, how does the “sensitivity of GABArho receptors” value (GABArho receptors) read?
Answer: insensitive

Question: For O=C(O)C1=CCNCC1 [isoguvacine], which “action on GABArho receptors” value [3] is on record?
Answer: either as weak partial agonists or as competitive antagonists

Question: With O=C(O)C1CCNCC1 [isonipecotic acid] as the molecule, how does the “action on GABArho receptors” value [3] read?
Answer: either as weak partial agonists or as competitive antagonists

Source: US5627169A, “Selective antagonists for GABArho receptor” (The Regents of The University of California, priority 1994, dated 1997)
